Converted amounts (≈) assume the structure as drawn. “And” between values parts separate entries of the source, which are not always exact repeats. Identical values can stand only once.
Experiments:
human STING [1] = target: T1, human STING (Homo sapiens, UniProt Q86WV6); assay: Cytokine mRNA induction; format: cell-based; settings: 6 h, qRT-PCR
[2] = system: PBMC-derived dendritic cells; assay: CD80 expression by flow cytometry in PBMC-derived dendritic cells; format: cell-based, human; settings: BNBC 50 μM or LPS 10 μg/ml, 48 h; gated from CD11c+ cells
[3] = system: PBMC-derived dendritic cells; assay: Cytokine mRNA induction; settings: BNBC 100 μM or LPS 10 μg/ml, 6 h
Dengue virus (DENV) = format: cell-based, dengue virus (serotype 2, New Guinea C strain); settings: THF cells pre-treated 8 h
Yellow fever virus (YFV) = format: cell-based, Yellow fever virus (17D strain); settings: THF cells pre-treated 8 h
Zika virus (ZIKV) = assay: Antiviral assay, pre-treated THF cells infected with ZIKV; format: cell-based, Zika virus (PRVABC59 strain); settings: THF cells pre-treated 8 h
human STING [4] = target: T1, human STING; assay: ISG54 luciferase reporter assay in HepG2/STING/ISG54Luc cells; format: cell-based
cGAS-STING pathway = assay: ISG54 luciferase reporter assay in HepAD38/cGAS-STING/ISG54Luc cells; format: cell-based, human; settings: 4 h treatment
[5] = target: human STING with truncation of carboxyl-terminal domain (CTD) (Homo sapiens, UniProt Q86WV6); assay: ISG54 luciferase reporter assay in HepAD38/cGAS-STINGΔC/ISG54Luc cells; format: cell-based; settings: 4 h treatment
[6] = system: HepAD38/cGAS-STING/ISG54Luc cells; format: cell-based; settings: human, 4 h
mouse STING = target: T2, mouse STING (Mus musculus, UniProt Q3TBT3); assay: IFN-β mRNA induction; format: cell-based; settings: HepG2/mSTING cells, 6 h, qRT-PCR
T2 sequence (Q3TBT3 1-378): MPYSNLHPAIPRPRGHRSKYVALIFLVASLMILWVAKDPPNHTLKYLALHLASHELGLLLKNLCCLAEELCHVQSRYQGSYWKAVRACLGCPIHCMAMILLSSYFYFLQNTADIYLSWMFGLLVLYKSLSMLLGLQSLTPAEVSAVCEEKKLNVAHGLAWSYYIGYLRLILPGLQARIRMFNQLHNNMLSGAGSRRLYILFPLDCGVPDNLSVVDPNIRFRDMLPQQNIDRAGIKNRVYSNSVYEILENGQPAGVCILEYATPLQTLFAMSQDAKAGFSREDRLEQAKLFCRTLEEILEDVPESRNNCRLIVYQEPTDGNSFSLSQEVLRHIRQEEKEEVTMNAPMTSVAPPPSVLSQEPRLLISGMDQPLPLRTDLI

human STING [7] = target: T1, human STING; assay: IRF3 phosphorylation; format: cell-based; settings: 100 μM, 2 h; HepG2/STING vs HepG2/STINGΔC cells
THF cells [8] = assay: Cytotoxicity in THF cells; format: cell-based, human
[9] = Aqueous solubility in PBS; format: physicochemical
[10] = Metabolic stability in human liver microsomes; format: in vitro ADME
[11] = Metabolic stability in mouse liver microsomes; format: in vitro ADME
Caco-2 permeability = format: in vitro ADME; settings: human
[12] = system: cytochrome P450 (Cyp) enzymes (CYP1A2, 2A6, 2B6, 2C8, 2C9, 2C19, 2D6, CYP2E1 and 3A4); assay: Cytochrome P450 inhibition panel; format: in vitro ADME; settings: inhibition = greater than 50% inhibition at 10 μM
[13] = Plasma protein binding, human; format: in vitro ADME
[14] = Plasma protein binding, mouse; format: in vitro ADME
THF cells [15] = assay: Cytokine response
human PBMCs = assay: Cytokine mRNA induction; settings: 6 h, qRT-PCR
[16] = MOI 0.1, 48 h, qRT-PCR, maximal reduction

T1 sequence (Q86WV6 whole entry): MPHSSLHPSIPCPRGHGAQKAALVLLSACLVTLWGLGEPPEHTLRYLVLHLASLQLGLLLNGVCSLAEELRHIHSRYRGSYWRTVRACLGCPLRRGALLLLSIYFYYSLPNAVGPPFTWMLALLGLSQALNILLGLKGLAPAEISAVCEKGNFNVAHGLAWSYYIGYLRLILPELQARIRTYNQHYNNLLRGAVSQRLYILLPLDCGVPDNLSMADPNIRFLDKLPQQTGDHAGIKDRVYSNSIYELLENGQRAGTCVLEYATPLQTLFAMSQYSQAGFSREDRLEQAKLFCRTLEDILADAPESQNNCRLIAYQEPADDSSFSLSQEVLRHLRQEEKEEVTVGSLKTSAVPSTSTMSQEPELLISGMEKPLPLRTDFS
human STING with truncation of carboxyl-terminal domain (CTD), sequence (Q86WV6 1-340 limits assumed): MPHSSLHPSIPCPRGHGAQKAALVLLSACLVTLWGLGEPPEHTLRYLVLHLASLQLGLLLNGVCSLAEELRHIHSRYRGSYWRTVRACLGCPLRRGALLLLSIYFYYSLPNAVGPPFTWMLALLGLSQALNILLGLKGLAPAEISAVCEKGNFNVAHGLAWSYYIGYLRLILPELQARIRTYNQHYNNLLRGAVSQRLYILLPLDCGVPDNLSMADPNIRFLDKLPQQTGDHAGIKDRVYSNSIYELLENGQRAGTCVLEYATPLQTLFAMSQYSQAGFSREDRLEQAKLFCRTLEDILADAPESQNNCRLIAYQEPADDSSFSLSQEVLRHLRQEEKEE

For `Cc1ccc2c(=O)c3cccc(CC(=O)O)c3oc2c1C` [DMXAA, 5’,6’-dimethylxanthenone-4-acetic acid, reference compound], which “Induction of IFN-β mRNA expression” value (human STING [1]; HepG2/STING cells expressing human STING) is on record?
The value was “not in HepG2/STING cells”.

For “Lipopolysaccharides [LPS, reference compound]”, which “Induction of CD80 expression” value [2] is on record?
Its value is “significantly induced expression of CD80”.

And the “Induction of cytokine mRNAs” value [3]?
The value was “efficiently induced the expression of IFN-β and IL-29 mRNAs and to a lesser extent, TNF-α and IL-6 mRNAs”.

With `O=C(NCc1ccco1)c1ccc2c(c1)N(Cc1c(F)cccc1Cl)C(=O)CS2` [G10, reference compound] as the molecule, how does the “Reduction of DENV RNA” value (Dengue virus (DENV); compared with BNBC) read?
The value was “reduced virial RNAs in similar potencies”.

And the “Reduction of YFV RNA” value (Yellow fever virus (YFV); compared with BNBC)?
The value was “reduced virial RNAs in similar potencies”.

And the “Reduction of ZIKV RNA” value (Zika virus (ZIKV); compared with BNBC)?
The value was “reduced virial RNAs in similar potencies”.

With `O=C(Nc1cccc2ccccc12)c1cc2c(cc1Br)OCO2` [BNBC, 6-bromo-N-(naphthalen-1-yl)benzo[d][1,3]dioxole-5-carboxamide] as the molecule, how does the “Induction of ISG54 promoter-driven luciferase expression” value (human STING [4]; HepG2/STING/ISG54 reporter cells lacking cGAS) read?
The value was “concentration-dependently induced ISG54 driven luciferase expression”.

What about the MinEC5X (human STING [4]; Minimum Effective Concentration to induce 5-fold luciferase activity relative to mock-treated control, HepG2/STING/ISG54Luc cells, 4 h) of the same molecule?
The MinEC5X was 2.2 µM.

What about the “Maximum induction (fold)” value (human STING [4]; maximum fold of luciferase induction, HepG2/STING/ISG54Luc cells, 4 h) of the same molecule?
Its value is 20.5 fold.

What about the “Induction of ISG54-driven luciferase expression” value (cGAS-STING pathway) of the same molecule?
The value was “induced luciferase expression in a concentration-dependent manner”.

What about the “Induction of ISG54-driven luciferase expression” value [5] of the same molecule?
Its value is “did not induce luciferase expression”.

And the “Cytotoxicity: concentration up to which no cytotoxicity was detected” value [6]?
Its value is > 200 µM.

What about the “Induction of IFN-β, IL29 (IFN-λ1) and TNF-α mRNA expression” value (human STING [1]; HepG2/STING cells) of the same molecule?
The value was “concentration-dependently induced IFN-β, IL29 (IFN-λ1) and TNF-α mRNA expression”.

And the “Induction of IFN-β mRNA expression” value (mouse STING)?
The value was “not in parental HepG2 cells, HepG2/STINGΔC cells and HepG2-derived cell line expressing mouse STING (HepG2/mSTING)”.

What about the “IRF3 phosphorylation and nuclear translocation” value (human STING [7]) of the same molecule?
The value was “only induced IRF3 phosphorylation and nuclear translocation in HepG2/STING cells”.

What about the “Cytotoxicity” value (THF cells [8]) of the same molecule?
The value was “absence of cytotoxicity”.

What about the “Reduction of intracellular DENV RNA level” value (Dengue virus (DENV); [16]) of the same molecule?
The value was “up to 90 fold”.

And the “Reduction of intracellular YFV RNA level” value (Yellow fever virus (YFV); [16])?
Its value is ≤ 150 fold.

What about the “Reduction of intracellular ZIKV RNA level” value (Zika virus (ZIKV); [16]) of the same molecule?
Its value is ≤ 800 fold.

What about the “Induction of CD80 expression” value [2] of the same molecule?
Its value is “significantly induced expression of CD80”.

And the solubility ([9]; pH 4, aqueous buffer)?
The solubility was 3.57 µM (≈ 1.32 µg/mL).

And the solubility ([9]; pH 7.4, aqueous buffer)?
The solubility was 2.62 µM (≈ 0.97 µg/mL).

And the half-life [10]?
The half-life was 20 min.

What about the half-life [11] of the same molecule?
The half-life was 2.21 min.

And the Papp A→B (Caco-2 permeability)?
The Papp A→B was 14.5 ×10⁻⁶ cm/s.

And the Papp B→A (Caco-2 permeability)?
Its Papp B→A is 5.98 ×10⁻⁶ cm/s.

What about the efflux ratio (Caco-2 permeability) of the same molecule?
Its efflux ratio is 0.41.

And the “Cyp IC50 < 10 μM (number of Cyps/reactions inhibited out of 10)” value [12]?
The value was 5 out of 10 and 5/10.

What about the fraction unbound [13] of the same molecule?
The fraction unbound was 0.0266.

And the fraction unbound [14]?
The fraction unbound was 0.0212.

What about the “Effect of STING knockout on compound-induced IFN-β mRNA expression” value (THF cells [15]; THF cells with knockout of STING, but not TRIF or IPS-1 (MAVS), 50 μM, 6 h) of the same molecule?
The value was “completely abolished”.

And the “Induction of cytokine mRNA and IFN-β secretion” value (THF cells [15]; THF cells, mRNA 6 h, ELISA 18 h)?
Its value is “concentration-dependently induced IFN-β, IL-28A and IL-6 mRNA expression as well as secretion of IFN-β into culture media”.

And the “Induction of cytokine expression” value (human PBMCs)?
Its value is “efficiently induced expression of type I and type III IFN, but to a lesser extent, TNF-α”.

And the “Induction of cytokine mRNAs” value [3]?
Its value is “efficiently induced the expression of IFN-β and IL-29 mRNAs and to a lesser extent, TNF-α and IL-6 mRNAs”.
